Article PMC11990103, “Anticancer Activity and Safety Profile of Novel 1-(4-Fluorophenoxyacetyl)-4-substituted Thio/Semicarbazide Derivatives” (Molecules, 2025)

Assays:
Format in all cases: cell-based, human
[1] = test system: G-361 melanoma cells; assay: Cell cycle analysis by image cytometry (NucleoCounter NC-3000); conditions: G-361, 48 h, AB2 at concentration corresponding to IC50
Method: (§1) To further evaluate the anticancer activity of thiosemicarbazide derivative AB2 in G-361 and LNCaP cell lines, cell cycle analysis by image cytometry and detection of apoptosis using annexin V and propidium iodide was performed. Analyses of the action of AB2 on the distribution of cells in different phases of the cell cycle indicated a significant increase in the population of cells in the sub-G1 phase compared to the control cultures, in both tested prostate and melanoma cells. This population increased from 7% and 5% in control cells to 26% and 27% after exposure to AB2 in LNCaP and G-361 cells, respectively (Figure 8A). The increase in the cell population in the sub-G1 phase indicates the presence of apoptosis or necrosis in the investigated cells and not a significant inhibition of cell proliferation, i.e., a cytostatic effect.
(§2) Cell cycle analysis was assessed with the NucleoCounter NC-3000 (ChemoMetec, Allerod, Denmark) following the 2-Step Cell Cycle Assay protocol recommended by the manufacturer. The research was performed after 48 h incubation of prostate cancer cells (LNCaP) and melanoma cells (G-361) with AB2 compound in a concentration corresponding to IC50 value. Analysis was performed in line with the previously described methodology.

[2] = test system: LNCaP prostate cancer cells; assay: as above; conditions: 48 h, AB2 at concentration corresponding to IC50
Method: as §1, §2

[3] = test system: G-361 melanoma cells; assay: Apoptosis detection, annexin V and propidium iodide; conditions: G-361, 48 h, concentration approximate to IC50
Method: as §1
(§3) In prostate cancer cells, the percentage of early apoptotic cells substantially elevated after AB2 treatment compared with the control group, indicating the initial activation of the apoptotic pathway. […] The percentage of cells in the early phase of apoptosis is approximately 36% and 28% in LNCaP and G-361 cells, respectively (Figure 8B). At the same time, the population of cells in late apoptosis increased in both cell lines, implying a progression of the apoptotic process after AB2 exposure. […]

[4] = test system: LNCaP prostate cancer cells; assay: as above; conditions: 48 h, concentration approximate to IC50
Method: as §1, §3

[5] = test system: G-361 melanoma cell line; assay: qRT-PCR relative gene expression; conditions: G-361, 24 h, concentration corresponding to IC50
Method: (§4) An analysis was conducted to examine the impact of the thiosemicarbazide AB2 on LNCaP prostate cancer cells and G-361 melanoma cells, focusing on the expression of genes associated with oxidative stress, cell cycle regulation, DNA repair, and apoptosis. Superoxide dismutase (SOD2), catalase (CAT), and glutathione peroxidase 1 (GPX1) are critical antioxidant enzymes that protect cells from oxidative stress by neutralizing reactive oxygen species (ROS) and mitigating potential cellular damage. […] This indicates heightened activation of cell cycle arrest mechanisms, given that p21 acts as an important inhibitor of cyclin-dependent kinases essential for cell cycle progression. […] The contrasting alterations in CDKN1A and CYCD indicate a transition toward cell cycle arrest in response to AB2 (Figure 9B). The next assessed panel of genes includes those involved in DNA damage sensing and repair, specifically ATM and ATR. ATM and ATR are fundamental components of the DNA damage response, responsible for the detection and repair of double-strand and single-strand DNA breaks, respectively.
(§5) The last assessed panel of genes includes genes involved in the process of apoptosis. BAX is a protein that enhances apoptosis, a natural to eliminate damaged or cancer cells. On the other hand, BCL-2 prevents apoptosis, helping cancer cells survive and resist therapy. […] The decrease in BCL-2 expression, along with stable BAX levels, led to a higher BAX/BCL-2 ratio in comparison to the control.
(§6) The relative gene expression was quantitatively assessed using real-time PCR. […] Next, for cell lysis the 1 mL of TRIzol™ reagent (Invitrogen, Carlsbad, CA, USA) was added. RNA was isolated according to the Chomczynski and Sacchi method. The RNA was reverse transcribed using NG dART RT-PCR reagents (EURx, Gdańsk, Poland) according to the manufacturer’s instructions. Following the manufacturer’s recommendation, the qPCR reaction was conducted in triplicate in a 7500 fast real-time PCR machine (ThermoFisher, Waltham, MA, USA) using Fast SG/ROX qPCR Master Mix (2×) (EURx, Gdansk, Poland). 18SRNA and BACT were used as reference genes. Gene expression was evaluated using qRT-PCR and ΔΔCt. Statistical analysis was conducted using RQ values (RQ = […]).

[6] = test system: LNCaP prostate cancer cell line; assay: qRT-PCR relative gene expression; conditions: 24 h, concentration corresponding to IC50
Method: as §4, §5, §6

Structure (SMILES): O=C(COc1ccc(F)cc1)NNC(=S)Nc1ccccc1Cl [AB2]
- cells in sub-G1 phase (M1) [1]: 27%
- cells in sub-G1 phase (M1) [2]: 26%
- early apoptotic cells (Q1lr) [3]: ~28%
- late apoptotic cells (Q1ur) [4]: 37%
- ATM gene expression [5]: downregulated
- ATR gene expression [5]: downregulated
- BAX gene expression [5]: did not differ from the control cultures
- BAX/BCL-2 ratio in comparison to the control [5]: higher
- BCL-2 gene expression [5]: significantly downregulated
- CAT gene expression, increase [5]: approximately 8 fold
- CDKN1A (p21) gene expression [5]: significantly upregulated
- CYCD (cyclin D) gene expression [5]: notably downregulated
- GPX1 gene expression [5]: moderate but significant rise
- SOD2 gene expression, rise compared to control [5]: > 100 fold
- TP53 gene expression [5]: significant downregulation
- ATM gene expression [6]: downregulated
- ATR gene expression [6]: downregulated
- BAX gene expression [6]: did not differ from the control cultures
- BAX/BCL-2 ratio in comparison to the control [6]: higher
- BCL-2 gene expression [6]: significantly downregulated
- CAT gene expression, increase [6]: ~6 fold
- CDKN1A (p21) gene expression [6]: significantly upregulated
- CYCD (cyclin D) gene expression [6]: notably downregulated
- GPX1 gene expression [6]: moderate but significant rise
- SOD2 gene expression, increase compared to control [6]: > 20 fold
- TP53 gene expression [6]: significant downregulation
